The nature of series [1]: Elution efficiency from HepaSphere microspheres (HPLC-MS/UV). It is filed as physicochemical. As to conditions: up to 168 h. As to the method: Nemorubicin hydrochloride (1 mg drug/ml HepaSphere™, 2.5 mg drug/ml HepaSphere™) and doxorubicin (1 mg drug/ml HepaSphere™, 2.5 mg drug/ml HepaSphere™, 25 mg drug/ml HepaSphere™) were mixed with HepaSphere™ microspheres (50-100 μm). After 20 minutes of incubation the elution efficiency of nemorubicin hydrochloride and doxorubicin was measured up to 168 h.
At desiderate elution time, supernatant was collected carefully by syringe, avoiding beads aspiration. Then solutions were collected in Eppendorf tubes and stored at −20° C. for further analysis.
The released amount of nemorubicin hydrochloride and doxorubicin was evaluated by HPLC-MS/UV analysis (the method used is reported in Example 2).

Series [2] has as its system human mammary adenocarcinoma cells (MCF-7). The series is described as follows: Cytotoxicity of elution fractions from DC Bead microspheres on MCF-7 cells (ATPLite). It is filed as cell-based. As to conditions: MCF-7, 72 h treatment. As to the method:
(§1) The release of nemorubicin hydrochloride from DC Bead™ microspheres was evaluated in PBS and in human plasma. At the end of the loading time and at each elution point, loaded nemorubicin hydrochloride-DC Bead™ microspheres were washed by warm water and finally incubated in warm PBS or human plasma at 37° C.
At desiderate elution time supernatant was collected carefully by syringe, avoiding beads aspiration. Then solutions were filtered by 70 μm nylon filcon filter (BD Biosciences) to avoid carry-over contamination, collected in Eppendorf tubes and finally stored at −20° C. for further analysis.
Samples were split for: • evaluation of the cytotoxicity of nemorubicin hydrochloride and doxorubicin against tumor cells (as dose able to inhibit cell growth by 50%; IC50). • evaluation of the released amount of nemorubicin hydrochloride and doxorubicin by HPLC-MS/UV analysis (the method used is reported in Example 2). In Vitro Antitumor Activity
The cytotoxic effect of elution fractions was investigated on human mammary adenocarcinoma cells (MCF-7, ECACC source). Cells were grown in E-MEM/Glutamax medium (Invitrogen), 10% FBS (EuroClone), and 1% Non-Essential AminoAcids (Invitrogen) and maintained at 37° C. at 5% CO2. For cytotoxicity test, cells were plated at density of 5,000 cells/well in 96-well plates (Corning) and grown for 24 h before treatment. Cells were treated for 72 h by raise dilutions of elution fractions. At the end of treatment, cells were incubated with TS substrate (ATPLite™). Plates were read for chemiluminescence (480/540 nm) by Perkin Elmer Envision™ plate reader.
IC50 were calculated by LSW Data Analysis™ curve fitting. The IC50 value of nemorubicin hydrochloride and doxorubicin in the medium eluted from DC Bead™ microspheres was compared to that of standard nemorubicin hydrochloride or doxorubicin fresh solutions.
(In ATP-based viability assays light output follows the ATP content of the culture.)

The nature of series [3]: Release of drug from DC Bead microspheres in human plasma. It is filed as physicochemical. Particulars: 37° C. How it is done: The measurements of nemorubicin hydrochloride in the elution medium were carried out with HPLC-MS/UV analysis performed by Finnigan MAT/LCQ Deca XP ion trap MS equipped with ESI ion source, directly connected to a Surveyor HPLC system (Thermo Electron Corporation). HPLC-MS/UV separations were set up on Phenomenex Gemini Phenyl, 3 μm, 50×4.6 mm by Acetate Buffer:Acetonitrile 1:9. UV detection was done at 480 nm and for ESI-MS analysis a heated capillary temperature at 275° C. and spray voltage at 4 KV was applied.
as §1
At desiderate elution time supernatant was collected carefully by syringe, avoiding beads aspiration. Then solutions were filtered by 70 μm nylon filcon filter (BD Biosciences) to avoid carry-over contamination, collected in Eppendorf tubes and finally stored at −20° C. for further analysis. […]

Series [4] can be described thus: Size and appearance of drug-loaded DC Bead microspheres by image analysis at microscope. As to conditions: doxorubicin 25 mg drug/ml DC Bead; over loading and elution in PBS. It is filed as physicochemical. How it is done:
Nemorubicin hydrochloride was diluted at the concentration range of from 0.1 to 2.0 mg drug/ml DC Bead™ that represent clinically applicable doses. In the following examples microspheres of 100-300 μm diameters (DC Bead™) were used. Similar results were obtained when microspheres of 300-500 μm diameters (DC Bead™) were used.
The size and spherical shape of microspheres were analyzed after loading with nemorubicin hydrochloride and during the release of the drug up to 16 days. As comparison DC Bead™ microspheres were loaded with doxorubicin at the clinically used dosage of 25 mg drug/ml DC Bead™.
Drug loading: DC Bead™ microspheres were conditioned in water for 10 min. Then the water was discarded and nemorubicin hydrochloride or doxorubicin was added.
Drug release: DC™ microspheres with or without drug were incubated in Phosphate Buffer Saline (PBS) or human plasma from healthy donors up to 16 days. The size and spherical shape of DC Bead™ microspheres were measured at different time points.
Size and appearance of nemorubicin hydrochloride-DC Bead™ microspheres during drug-loading and drug-elution were determined by a Leica DM IRB (Leica) microscope equipped by Evolution MP Color CCD Camera (Media Cybernatics). The analysis of size was performed by Image Pro Plus™ (Media Cybernatics). […] At least four field-images for samples were analyzed to support the statistical analysis.

SMILES strings stand for the structures.

Usually IC50 stands for the concentration that gives 50% inhibition. Low readings indicate greater potency in that assay, high ones weaker potency in that assay.

Consider `COc1cccc2c1C(=O)c1c(O)c3c(c(O)c1C2=O)C[C@@](O)(C(=O)CO)C[C@@H]3O[C@H]1C[C@H](N)[C@H](O)[C@H](C)O1` [Doxorubicin, reference compound], for which the “% total released drug” value in series [1] (Dose 1 mg drug/ml HepaSphere (50-100 μm)) is listed as 7%; in series [1] (Dose 2.5 mg drug/ml HepaSphere (50-100 μm)) it was 4%; in series [1] (Dose 25 mg drug/ml HepaSphere (50-100 μm)) it was 35%. Also, the IC50 was 250 nM in series [2] (MCF7, 72 h, Standard (fresh drug solution)); 140 nM in series [2] (MCF7, 72 h, fraction eluted at 72 h); 250 nM in series [2] (MCF7, fraction eluted at 24 h); 180 nM in series [2] (MCF7, fraction eluted at 48 h); 200 nM in series [2] (MCF7, fraction eluted at 96 h); 450 nM in series [2] (MCF7, fraction eluted at 120 h). Further, the IC50 was found to be 1500 nM in series [2] (MCF7, fraction eluted at 144 h) and 300 nM in series [2] (MCF7, fraction eluted from DC Bead microspheres at 1 h). The total drug released in series [3] amounted to 2.5%. For the same compound, the “size range of loaded microspheres (diameter)” value in series [4] was 85-125 μm.

Values taken from patent US8940334B2, “Pharmaceutical composition of an anthracycline” (priority 2007, dated 2015).
